Here are results for five molecules from patent US12173137B2, “Functionalized high-oleic soybean oil wax and emulsion for post-harvest treatment of fresh fruit” (Iowa State University Research Foundation, Inc., priority 2020, dated 2024).

Marks after values point to notes of the source that are not given here.

What all share (format): physicochemical
The nature of data set [1]: Cohesiveness of wax materials (three-point bend test). Particulars: area under curve to peak force, 4 mm-thick cast sample. As to the method:
(§1) Hardness, defined as a measure of resistance to local deformation, was measured using a H-1200 Universal Penetrometer (Humboldt Mfg. Co., Raleigh, NC) following ASTM D1321 standard. Ten grams of molten material were cast in a 5 cm diameter by 3 cm tall hollow polyvinyl chloride plastic mold. Material was allowed to fully cool and equilibrate to room temperature for at least 6 hours prior to testing. The distance traveled by penetrometer needle (mm) into the wax disc was recorded as the hardness (mm^−1) after taking the reciprocal value. Cohesiveness, defined as the strength of a material due to interatomic or intermolecular forces, was measured as per previous methodology (Fei et al., “Synthesis and Characterization of Soybean Oil-Based Waxes and Their Application as Paraffin Substitute for Corrugated Coating,” J. Ind. Eng. Chem. 58:113-122 (2018), which is hereby incorporated by reference in its entirety) by a three-point bend test using a TA.XTPlus Texture Analyzer (Stable Micro Systems, So. Hamilton, MA) with a TA-92N probe on a 4 mm-thick cast wax sample, made by casting 2.2-2.8 g of molten material in a small hexagonal weighing boat, and allowing samples to cool to r.t. for at least 2 hours. Hexagonal samples were then sanded down flat to a uniform mass with a fine grit sanding sponge taking care to remove concave and convex regions. Test was performed by placing sample between two vertical support bars 12 mm apart and driving the blunt blade normal to the sample at 0.5 mm/s to a trigger distance of 3 mm. The area under curve was acquired from a distance at 0 mm to the peak positive force, and the average of three tests for each material was recorded as the cohesiveness (g mm) of the material.

A short description of data set [2]: Hardness of wax materials (penetrometer, ASTM D1321). Particulars: reciprocal of needle penetration distance, room temperature. Here is the method:
as §1

Data set [3] is described as follows: Differential scanning calorimetry of wax materials. The conditions noted are these: for Relative Crystallinity: 290 J/g for a 100% crystalline material; for Enthalpy of Melting: DSC, heating to 100° C. at 10° C./min. Here is the method:
Melting profile of wax materials was analyzed with a DSC 250 Discovery (TA Instruments, New Castle, Del.) calorimeter using the methodology by Donhowe and Fennema (1993). Wax samples (approximately 10 mg) were first heated to 100° C. at a rate of 200° C./min, held for 3 min, cooled to 25° C. at a rate of 20° C./min and equilibrated for 3 min. Actual test ramp was then performed by heating to 100° C. at a rate of 10° C./min. Melting point ranges were calculated from the average of three samples from each material.
(In DSC, transitions show as peaks or steps in heat flow.)

Take “Triacylglyceride of Regioisomeric Hydroxyoctadecanoic Acid [Compound 3]”: the Cohesiveness in data set [1] came to 113 ± 13 g mm. Further, the Hardness in data set [2] is listed as 0.68 ± 0.05 mm^−1. Further, in data set [3], the “Relative Crystallinity” value is 12.9 ± 1.5^ef % and the “Enthalpy of Melting” value came to 37.3 ± 4.3 J/g.

In data set [1], “Mixture of 9-Hydroxyoctadecanoic (4a) and 10-Hydroxyoctadecanoic Acid (4b) [Compound 4a-b]” came in with a Cohesiveness of 95 ± 1 g mm. Further, the Hardness in data set [2] is listed as 0.30 ± 0.02^e mm^−1. In addition, in data set [3], the “Relative Crystallinity” value is reported as 6.3 ± 0.4^f % and the “Enthalpy of Melting” value is 18.3 ± 0.1 J/g.

For `CCCCCCC(=O)CCCCCCCCCCC(=O)OCC(COC(=O)CCCCCCCCCCC(=O)CCCCCC)OC(=O)CCCCCCCCCCC(=O)CCCCCC` [Compound 8, Propane-1,2,3-triyl tris(12-oxooctadecanoate)], the Cohesiveness in data set [1] is 203 ± 49 g mm. For the same molecule, in data set [2], the Hardness was determined as 0.50 ± 0.09 mm^−1. Further, in data set [3], the “Relative Crystallinity” value is 43.7 ± 0.7^ % and the “Enthalpy of Melting” value was found to be 126.8 ± 2.0 J/g.

With `CCCCCC[C@@H](O)CCCCCCCCCCC(=O)O` [Compound 6, (R)-12-hydroxyoctadecanoic acid, reference compound], the Cohesiveness in data set [1] is 1443 ± 30^c g mm. The Hardness in data set [2] is 2.22 ± 0.04^c mm^−1. In data set [3], the “Relative Crystallinity” value is given as 51.2 ± 1.0^ab % and the “Enthalpy of Melting” value is 148.4 ± 3.1 J/g.

Consider `CCCCCCC(=O)CCCCCCCCCCC(=O)O` [Compound 7, 12-Oxooctadecanoic Acid], for which the Cohesiveness in data set [1] is 360 ± 34 g mm. Moreover, the Hardness in data set [2] stood at 0.63 ± 0.08 mm^−1. In addition, in data set [3], the “Relative Crystallinity” value is recorded as 42.8 ± 10.1% and the “Enthalpy of Melting” value worked out at 124.3 ± 29.4 J/g.
